This passage reports IC50 results from ChEMBL document CHEMBL1201862, “PubChem BioAssay data set” (2004).

The IC50 is the concentration at which inhibition is half-maximal.

The assay concerns the target Envelope glycoprotein gp160 (Human immunodeficiency virus 1, UniProt Q6QLK5). The assay can be described thus: cell-free HIV fusion peptide-binding blockers – biochemical, uHTS, fluorescence dequenching, […] (AID 1986).

The source made the active and inactive calls. No stated cut-off is given here; in the data, actives have a measured IC50 and inactives only a lower limit.

Sequence of Envelope glycoprotein gp160 (Q6QLK5 whole entry, the tested form may be a part): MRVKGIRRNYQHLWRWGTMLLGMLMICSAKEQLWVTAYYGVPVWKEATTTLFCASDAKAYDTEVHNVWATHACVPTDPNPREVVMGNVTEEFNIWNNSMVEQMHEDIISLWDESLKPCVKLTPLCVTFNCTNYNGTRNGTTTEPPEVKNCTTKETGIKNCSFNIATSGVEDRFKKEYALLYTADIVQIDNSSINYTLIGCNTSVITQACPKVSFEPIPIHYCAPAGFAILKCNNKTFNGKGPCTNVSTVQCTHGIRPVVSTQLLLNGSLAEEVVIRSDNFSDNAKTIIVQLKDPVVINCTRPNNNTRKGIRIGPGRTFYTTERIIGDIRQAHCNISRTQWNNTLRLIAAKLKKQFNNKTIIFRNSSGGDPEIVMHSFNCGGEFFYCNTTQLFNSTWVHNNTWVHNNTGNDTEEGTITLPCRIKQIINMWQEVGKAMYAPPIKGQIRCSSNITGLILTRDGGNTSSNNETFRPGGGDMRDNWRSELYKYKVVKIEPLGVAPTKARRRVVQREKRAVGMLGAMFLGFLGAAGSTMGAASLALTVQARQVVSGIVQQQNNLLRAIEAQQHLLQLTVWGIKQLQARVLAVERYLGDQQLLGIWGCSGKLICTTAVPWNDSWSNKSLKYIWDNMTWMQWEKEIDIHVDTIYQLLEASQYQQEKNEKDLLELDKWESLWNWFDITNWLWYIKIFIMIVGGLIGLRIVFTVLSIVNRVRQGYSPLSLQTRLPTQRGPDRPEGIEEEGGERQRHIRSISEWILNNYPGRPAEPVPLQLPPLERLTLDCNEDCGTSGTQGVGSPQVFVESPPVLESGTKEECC

`COc1ccc(S(=O)(=O)Nc2ccccc2C(=O)Nc2nc(-c3ccc(F)cc3)cs2)cc1OC`: the IC50 is 14.8 µM (active).
